Source: PubChem BioAssay (NCI)
Several values for one entry are separate records, joined by “and”; a condition that tells them apart may be missing. Equal values may be shown once.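 Following 48 hours of exposure in 96-well plates, responses at five concentrations were used to interpolate endpoints linearly. GI50 marks 50% less growth. TGI: concentration producing complete growth inhibition.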

Assays:
Test in all cases: DTP human tumour cell line panel, 48 h
HOP-18 NSCLC = system: HOP-18 NSCLC
OVCAR-8 ovarian = system: OVCAR-8 ovarian
LXFL 529 NSCLC = system: LXFL 529 NSCLC
DMS 273 small cell lung = system: DMS 273 small cell lung
SN12C renal = system: SN12C renal
K-562 leukemia = system: K-562 leukemia
SNB-78 CNS = system: SNB-78 CNS
ACHN renal = system: ACHN renal
MOLT-4 leukemia = system: MOLT-4 leukemia
T-47D breast = system: T-47D breast

SMILES: CC(C)(C)C([O-])=C1C(=O)c2ccccc2C1=O.CC(C)(C)C([O-])=C1C(=O)c2ccccc2C1=O.CC[O-].CC[O-].[Ti+4]
- GI50 (HOP-18 NSCLC): 18.2 µM
- TGI (HOP-18 NSCLC): 83.3 µM
- GI50 (OVCAR-8 ovarian): 29.3 µM
- TGI (OVCAR-8 ovarian): 90.1 µM
- GI50 (LXFL 529 NSCLC): 39.9 µM
- TGI (LXFL 529 NSCLC): > 100 µM
- GI50 (DMS 273 small cell lung): 31.2 µM
- TGI (DMS 273 small cell lung): > 100 µM
- GI50 (SN12C renal): 37.7 µM
- TGI (SN12C renal): > 100 µM
- GI50 (K-562 leukemia): 44.9 µM
- TGI (K-562 leukemia): > 100 µM
- GI50 (SNB-78 CNS): 28.4 µM
- TGI (SNB-78 CNS): 93.8 µM
- GI50 (ACHN renal): 35.2 µM
- TGI (ACHN renal): > 100 µM
- GI50 (MOLT-4 leukemia): 22.4 µM
- TGI (MOLT-4 leukemia): 61.9 µM

SMILES: Cn1cc(NC(=O)c2cc(NC(=O)CCCCCC(=O)Nc3cc(C(=O)Nc4cc(C(=O)NCCC(=N)N)n(C)c4)n(C)c3)cn2C)cc1C(=O)NCCC(=N)N
- TGI (HOP-18 NSCLC): > 100 µM
- TGI (OVCAR-8 ovarian): > 100 µM
- TGI (LXFL 529 NSCLC): > 100 µM
- TGI (DMS 273 small cell lung): > 100 µM
- TGI (SN12C renal): > 100 µM
- TGI (K-562 leukemia): > 100 µM
- TGI (SNB-78 CNS): > 100 µM
- TGI (ACHN renal): > 100 µM

SMILES: CC[C@@]1(OC(=O)CCC(=O)O)C(=O)OCc2c1cc1n(c2=O)Cc2cc3ccccc3nc2-1
- TGI (HOP-18 NSCLC): > 100 µM
- TGI (T-47D breast): 2.62 µM
- TGI (OVCAR-8 ovarian): 9.38 µM
- TGI (LXFL 529 NSCLC): > 45.4 µM
- TGI (DMS 273 small cell lung): 0.676 µM
- TGI (SN12C renal): 4.22 µM
- TGI (K-562 leukemia): > 61.8 µM
- TGI (SNB-78 CNS): > 100 µM
- TGI (ACHN renal): 0.424 µM
- TGI (MOLT-4 leukemia): 0.163 µM

SMILES: CC1=C(N2CC2)C(=O)c2nc3n(c2C1=O)CCC3O (centres undefined)
- TGI (HOP-18 NSCLC): > 100 µM
- TGI (T-47D breast): 2.04 µM
- TGI (OVCAR-8 ovarian): 0.688 µM
- TGI (LXFL 529 NSCLC): 2.44 µM
- TGI (DMS 273 small cell lung): 1.68 µM
- TGI (SN12C renal): 2.71 µM
- TGI (K-562 leukemia): 5.06 µM
- TGI (SNB-78 CNS): 0.131 µM
- TGI (ACHN renal): 1.61 µM
- TGI (MOLT-4 leukemia): 21.1 µM

SMILES: Cn1nnnc1[N-]Cc1ccccc1.[Au+].c1ccc([PH+](c2ccccc2)c2ccccc2)cc1
- GI50 (HOP-18 NSCLC): 2.25 µM
- TGI (HOP-18 NSCLC): 4.98 µM
- GI50 (OVCAR-8 ovarian): 3.13 µM
- TGI (OVCAR-8 ovarian): 10.1 µM
- GI50 (LXFL 529 NSCLC): 1.45 µM
- TGI (LXFL 529 NSCLC): 2.79 µM
- GI50 (DMS 273 small cell lung): 11.1 µM
- TGI (DMS 273 small cell lung): > 100 µM
- GI50 (SN12C renal): 5.01 µM
- TGI (SN12C renal): 17 µM
- GI50 (SNB-78 CNS): 6.86 µM
- TGI (SNB-78 CNS): > 66.9 µM
- GI50 (ACHN renal): 4.29 µM
- TGI (ACHN renal): 10.6 µM
- GI50 (MOLT-4 leukemia): 1.67 µM
- TGI (MOLT-4 leukemia): 4.75 µM

SMILES: CCc1cccc(C)c1NC(=O)CC1Sc2ccccc2NC1=O (centres undefined)
- TGI (HOP-18 NSCLC): > 100 µM
- TGI (OVCAR-8 ovarian): > 100 µM
- TGI (LXFL 529 NSCLC): > 100 µM
- TGI (DMS 273 small cell lung): > 100 µM
- TGI (SN12C renal): > 100 µM
- TGI (K-562 leukemia): > 100 µM
- TGI (SNB-78 CNS): > 100 µM
- TGI (ACHN renal): > 100 µM
- TGI (MOLT-4 leukemia): > 100 µM

SMILES: CC(O)C(NC(=O)C(CS)NC(=O)C(CO)NC(=O)C(CCCCN)NC(=O)C(Cc1c[nH]c2ccccc12)NC(=O)C(Cc1ccc(O)cc1)NC(=O)C(CS)NC(=O)C(N)Cc1ccccc1)C(N)=O (centres undefined)
- TGI (HOP-18 NSCLC): 46.6 µM
- TGI (T-47D breast): > 25 µM
- TGI (OVCAR-8 ovarian): > 25 µM and 81.5 µM
- TGI (DMS 273 small cell lung): 49.4 µM
- GI50 (SN12C renal): 28.6 µM
- TGI (SN12C renal): > 25 µM and 84.2 µM
- GI50 (K-562 leukemia): 17.8 µM
- TGI (K-562 leukemia): > 25 µM and 32.1 µM
- TGI (SNB-78 CNS): 96 µM
- GI50 (ACHN renal): 20.5 µM
- TGI (ACHN renal): > 25 µM and 44.5 µM
- TGI (MOLT-4 leukemia): > 25 µM and 67.4 µM

SMILES: Nc1ccc2c(c1)[O][Sn]([c]1ccccc1)([c]1ccccc1)[O]C2=O
- GI50 (HOP-18 NSCLC): 15.6 µM
- TGI (HOP-18 NSCLC): 29 µM
- GI50 (OVCAR-8 ovarian): 13.2 µM
- TGI (OVCAR-8 ovarian): 28.2 µM
- GI50 (LXFL 529 NSCLC): 1.51 µM
- TGI (LXFL 529 NSCLC): 3.12 µM
- GI50 (DMS 273 small cell lung): 16.6 µM
- TGI (DMS 273 small cell lung): 31.1 µM
- GI50 (SN12C renal): 7.24 µM
- TGI (SN12C renal): 20.4 µM
- GI50 (K-562 leukemia): 2.56 µM
- TGI (K-562 leukemia): 15.2 µM
- GI50 (SNB-78 CNS): 5.31 µM
- TGI (SNB-78 CNS): 23.4 µM
- GI50 (ACHN renal): 11.9 µM
- TGI (ACHN renal): 25.4 µM
- GI50 (MOLT-4 leukemia): 5.01 µM
- TGI (MOLT-4 leukemia): 29.7 µM

SMILES: COc1ccc(/C=[N+](\[O-])[C@H](COCc2ccccc2)c2ccccc2)cc1
- TGI (HOP-18 NSCLC): > 100 µM
- TGI (OVCAR-8 ovarian): > 100 µM
- TGI (LXFL 529 NSCLC): > 100 µM
- TGI (DMS 273 small cell lung): > 100 µM
- TGI (K-562 leukemia): > 100 µM
- TGI (SNB-78 CNS): > 100 µM
- TGI (ACHN renal): > 100 µM
- TGI (MOLT-4 leukemia): > 100 µM

SMILES: CC1=C2N3C[C@@H](n4c(=O)n(C)c(=O)n43)C23CCC1n1c(=O)n(C)c(=O)n13
- TGI (HOP-18 NSCLC): > 100 µM
- TGI (OVCAR-8 ovarian): > 100 µM
- TGI (LXFL 529 NSCLC): > 100 µM
- TGI (DMS 273 small cell lung): > 100 µM
- TGI (SN12C renal): > 100 µM
- TGI (K-562 leukemia): > 100 µM
- TGI (SNB-78 CNS): > 100 µM
- TGI (ACHN renal): > 100 µM
- TGI (MOLT-4 leukemia): > 100 µM

SMILES: CCCCCCCCCCCC(=O)C1=C(O)C(O)CCC1=O (centres undefined)
- TGI (HOP-18 NSCLC): 86.5 µM
- TGI (OVCAR-8 ovarian): 36.6 µM
- TGI (LXFL 529 NSCLC): 53.9 µM
- TGI (DMS 273 small cell lung): 21.3 µM
- TGI (SN12C renal): 78.3 µM
- TGI (K-562 leukemia): 43 µM
- TGI (SNB-78 CNS): 55.8 µM
- TGI (ACHN renal): 56.9 µM
- TGI (MOLT-4 leukemia): 60.3 µM

SMILES: O=C(O)c1[nH]c(C(=O)O)c(CC(F)(F)C(F)(F)C(F)(F)F)c1CC(F)(F)C(F)(F)C(F)(F)F
- TGI (HOP-18 NSCLC): > 100 µM
- TGI (OVCAR-8 ovarian): > 100 µM
- TGI (LXFL 529 NSCLC): > 100 µM
- TGI (DMS 273 small cell lung): > 100 µM
- TGI (SN12C renal): > 100 µM
- TGI (K-562 leukemia): > 100 µM
- TGI (SNB-78 CNS): > 100 µM
- TGI (ACHN renal): > 100 µM

SMILES: CC(SC1=CC(=O)c2c(O)ccc(O)c2C1=O)C(=O)O (centres undefined)
- TGI (HOP-18 NSCLC): > 90.3 µM
- TGI (OVCAR-8 ovarian): > 89.3 µM
- TGI (LXFL 529 NSCLC): > 51.6 µM
- TGI (DMS 273 small cell lung): > 100 µM
- TGI (SN12C renal): > 77.7 µM
- TGI (K-562 leukemia): 40.7 µM
- TGI (SNB-78 CNS): > 79.1 µM
- TGI (ACHN renal): > 64.1 µM
- TGI (MOLT-4 leukemia): 60.7 µM
